The text below walks through data of patent US10273218B2, “BCL-3 inhibitors” (University College Cardiff Consultants Limited, priority 2014, dated 2019).

Test [1] concerns NF-κB activity in MDA-MB-231 cells. Kind of test: NF-kB luciferase assay, EGF-induced NF-kB activity. It counts as cell-based, human. The note with it: 1 micromolar, 20 hours, then 100 ng/ml EGF for 3 hours. As to the method:
MDA-MB-231 is a highly metastatic, human basal epithelial cell line isolated from the pleural effusion of an adenocarcinoma. The cells are ‘triple negative’ as they lack estrogen, progesterone and ERBB2 receptor and they strongly over-express EGFR. The expression of receptors in this line has been confirmed by the host laboratory.
For NF-κB luciferase assays, cells are seeded into clear bottom black 96-well plates (Corning Inc., Lowell, US) in antibiotic free culture media in appropriate density. After about 20-24 hrs, cells are transfected with 10 ng of 3×κB luciferase plasmid and 10 ng of pcDNA3.1-Lacl plasmid per well. […]
After 48 hrs post-transfection with luciferase reporter plasmid, the media is aspirated and cells are lyzed using 50 μl/well of Glo-lysis buffer (Promega, Southampton, UK). […] Subsequently, 30 μl/well of Bright-Glo luciferase substrate (Promega, Southampton, UK) is added to the original plate and is assayed immediately for luminescence activity. The luminescence produced from either reaction is read using a Fluorostar Optima plate reader (BMG tabtech, Bucks, UK). […]
After 48 hrs post-transfection with luciferase reporter plasmid, the media was aspirated and cells were lyzed using 50 μl/well of Glo-lysis buffer (Promega, Southampton, UK). […] The luminescence produced from either reaction was read using a Flurostar Optima plate reader (BMG tabtech, Bucks, UK). […]

In test [2] the test system is MDA-MB-231-Luc highly metastatic human breast cancer cells. Briefly: in vivo metastasis mouse model, disease free survival. On the set-up: species or system Nude mice. The conditions noted are these: 3.5 mg/Kg once daily for 10 days; MDA-MB-231-Luc i.v.; monitored up to 49 days. As to the method: Nude mice are injected i.v. with 200,000 highly metastatic human breast cancer cells expressing luciferase (MDA-MB-231-Luc) then are given a compound of Formula (I) or Formula (Ia) once daily for about 10 days and are monitored for tumours by total body scan using Xenogen-IVIS. Mice with a luciferase signal above background in repeated scans in any part of their torso are scored as having metastatic disease. Total light emission in the abdominal region is quantified at time points up to 49 days post surgery and plotted as mean total light yield.
Nude mice were injected i.v. with 200,000 highly metastatic human breast cancer cells expressing luciferase (MDA-MB-231-Luc) then given 3.5 mg/Kg of compound 12, reference compound A, or Reference compound B once daily for 10 days and monitored for tumours by total body scan using Xenogen-IVIS. Mice with a luciferase signal above background in repeated scans in any part of their torso were scored as having metastatic disease. Total light emission in abdominal region was quantified at time points up to 49 days post surgery and plotted as mean total light yield. Control n=12, Reference compound A n=10, Reference compound B n=4; compound 12 n=4.

Test [3] concerns human breast cancer (MDA-MB-231). Briefly: mouse Model 4 (tumour growth at transplantation site), MDA-MB-231. The conditions noted are these: 3.5 mg/kg intraperitoneal injection daily; MDA-MB-231 subcutaneous; caliper tumour volume; listed as compound 12. It counts as in vivo, mice. As to the method:
(§1) In all experiments, each compound was administered by intraperitoneally at 3.5 mg/kg.
(§2) Another model (Model 4) studied the effect of the compound's ability to inhibit the growth of tumour cells at the transplantation site. Human tumour cell lines were injected subcutaneously into recipient mice, followed 2 days later by single daily intraperitoneal injections of a compound (3.5 mg/kg in 1% DMSO) for the entire course of the experiment. Tumour burden was monitored longitudinally for up to 12 weeks in vivo by palpation and caliper measurements of tumour volume, and subsequently histology performed on tumours at the end of the experiment.
(§3) Model 4 tested the effect of compounds of the application to inhibit the growth of tumour cells at the transplantation site. Human tumour cell lines were injected subcutaneously into recipient mice, followed 2 days later by single daily intraperitoneal injections of Bcl3 inhibitor (3.5 mg/kg in 1% DMSO) for the entire course of the experiment. Tumour burden was monitored longitudinally for up to 12 weeks in vivo by palpation and caliper measurements of tumour volume, and subsequently histology performed on tumours at the end of the experiment.
FIGS. 6 and 7 show the comparative effect of compound 12 (3.5 mg/kg intraperitoneal injection) on Model 4 in human breast cancer (MDA-MB-231) and human colorectal cell lines (SW480), respectively. […]

Test [4] deals with human colorectal cell lines (SW480). Kind of test: mouse Model 4 (tumour growth at transplantation site), SW480. The conditions noted are these: 3.5 mg/kg intraperitoneal injection daily; SW480 subcutaneous; caliper tumour volume. Type of test: in vivo, mice. As to the method: as §1, §2, §3
FIGS. 6 and 7 show the comparative effect of compound 12 (3.5 mg/kg intraperitoneal injection) on Model 4 in human breast cancer (MDA-MB-231) and human colorectal cell lines (SW480), respectively.

Regarding `COc1ccc(C(=O)Nc2ccccc2C(=O)NCCN2CCOCC2)c(F)c1` [Compound 12, 2-fluoro-4-methoxy-N-(2-((2-morpholinoethyl)carbamoyl)phenyl) benzamide], the “greater suppression of NF-kB activity as compared to reference compound A” value in test [1] is 25%. For the same compound, the “suppression of EGF induced NF-kB activity” value in test [1] (MDA-MB-231 NF-kB promoter luciferase reporter) amounted to 100%. The compound also gave a disease free survival in test [2] of 100%. In test [3], the “tumour growth at the transplantation (xenograft) site” value is listed as “significant reductions in average tumour growth”. Moreover, the “average tumour growth at the transplantation site” value in test [4] is listed as “significant reductions in average tumour growth”.
